Reference: patent publication US7351690B2, “Knockout identification of target-specific sites in peptides” (priority 2000, dated 2008)
Square brackets hold non-standard residues; d marks the D form. pGlu = O=C1CC[C@@H](C(=O)O)N1; Nle = CCCC[C@H](N)C(=O)O

Test system: bombesin receptor
Test: competitive binding assay, 125I-Bombesin, rat brain membranes
Conditions: not given
Protocol: Rat brain membranes were utilized as the source of bombesin receptor. The competitive binding assay was performed using a procedure as described by Moody T W, Perk C B, Rivier J, Brown, M R. (Proc Natl Acad Sci USA. 75:5372-5376, […]) and adapted to a 96 well format. An aliquot of membranes taken in assay buffer (50 mM Tris and HCl, pH 7.4 containing 1 mg/mL BSA and 2 μg/mL bacitracin) was incubated with 0.01 nM of ^125I-Bombesin with or without varying concentrations of the test compound for 60 min at 4° C. The incubation was terminated by rapid filtration of the assay mixture, followed by washing the filters with ice-cold buffer. The filters were dried and counted in a gamma counter for retained radioactivity. Non-specific binding was measured by including 1 μM Bombesin in the assay tube. The assay was performed in triplicate and results calculated to determine percentage inhibition of the ^125I-Bombesin binding to its receptors by a test compound. The parent polypeptide is shown in Table 6, with metallopeptides having Cys inserted as shown.

| Substance | binding to bombesin receptor, in words |
| --- | --- |
| Pyr-Gln-Arg-Leu-Gly-Asn-Gln-Cys-Ala-Val-Gly-His-Leu-Nle-NH2 (QRLGNQCAVGHL; N-term pyroglutamate; Nle-NH2; rhenium complex; printed: Gln-Arg-Leu-Gly-Asn-Gln-Cys-Ala-Val-Gly-His-Leu-) [7-7] | Complete inactivity |

Same assay, conditions: inhibition of 0.01 nM 125I-Bombesin binding; rat brain membranes; test concentration not given

| Substance | % Inhibition |
| --- | --- |
| Pyr-Gln-Arg-Cys-Leu-Gly-Asn-Gln-Trp-Ala-Val-Gly-His-Leu-Nle-NH2 ([pGlu]QRCLGNQWAVGHL[Nle]-NH2; numbers in words are those of the source; also: oxorhenium(V) N3S1 chelate (Re(V)=O)) [6-12] | 97% |
| Pyr-Gln-Arg-Leu-Gly-Asn-Cys-Gln-Trp-Ala-Val-Gly-His-Leu-Nle-NH2 ([pGlu]QRLGNCQWAVGHL[Nle]-NH2; numbers in words are those of the source; also: oxorhenium(V) N3S1 chelate (Re(V)=O)) [6-9] | 91% |
| Pyr-Gln-Arg-Leu-Gly-Asn-Cys-Trp-Ala-Val-Gly-His-Leu-Nle-NH2 (QRLGNCWAVGHL; N-term pyroglutamate; Nle-NH2; rhenium complex; printed: Gln-Arg-Leu-Gly-Asn-Cys-Trp-Ala-Val-Gly-His-Leu-) [7-8] | 84% |
| Pyr-Gln-Arg-Leu-Gly-Asn-Gln-Cys-Ala-Val-Gly-His-Leu-Nle-NH2 (QRLGNQCAVGHL; N-term pyroglutamate; Nle-NH2; rhenium complex; printed: Gln-Arg-Leu-Gly-Asn-Gln-Cys-Ala-Val-Gly-His-Leu-) [7-7] | −2% |
| Pyr-Gln-Arg-Leu-Gly-Asn-Gln-Cys-Trp-Ala-Val-Gly-His-Leu-Nle-NH2 ([pGlu]QRLGNQCWAVGHL[Nle]-NH2; numbers in words are those of the source; also: oxorhenium(V) N3S1 chelate (Re(V)=O)) [6-8] | 75% |
| Pyr-Gln-Arg-Leu-Gly-Asn-Gln-Trp-Ala-Cys-Gly-His-Leu-Nle-NH2 (QRLGNQWACGHL; N-terminal pyroglutamate; C-terminal Nle-amide; printed: Gln-Arg-Leu-Gly-Asn-Gln-Trp-Ala-Cys-Gly-His-Leu-) [7-5] | 61% |
| Pyr-Gln-Arg-Leu-Gly-Asn-Gln-Trp-Ala-Cys-Val-Gly-His-Leu-Nle-NH2 ([pGlu]QRLGNQWACVGHL[Nle]-NH2; numbers in words are those of the source; also: oxorhenium(V) N3S1 chelate (Re=O) with Cys) [6-6] | 83% |
| Pyr-Gln-Arg-Leu-Gly-Asn-Gln-Trp-Ala-Val-Cys-Gly-His-Leu-Nle-NH2 ([pGlu]QRLGNQWAVCGHL[Nle]-NH2; numbers in words are those of the source; also: oxorhenium(V) N3S1 chelate (Re=O) with Cys) [6-5] | 67% |
| Pyr-Gln-Arg-Leu-Gly-Asn-Gln-Trp-Ala-Val-Cys-His-Leu-Nle-NH2 (QRLGNQWAVCHL; N-terminal pyroglutamate; C-terminal Nle-amide; printed: Gln-Arg-Leu-Gly-Asn-Gln-Trp-Ala-Val-Cys-His-Leu-) [7-4] | 81% |
| Pyr-Gln-Arg-Leu-Gly-Asn-Gln-Trp-Ala-Val-Gly-Cys-His-Leu-Nle-NH2 ([pGlu]QRLGNQWAVGCHL[Nle]-NH2; numbers in words are those of the source; also: oxorhenium(V) N3S1 chelate (Re=O) with Cys) [6-4] | 70% |
| Pyr-Gln-Arg-Leu-Gly-Asn-Gln-Trp-Ala-Val-Gly-Cys-Leu-Nle-NH2 (QRLGNQWAVGCL; N-terminal pyroglutamate; C-terminal Nle-amide; printed: Gln-Arg-Leu-Gly-Asn-Gln-Trp-Ala-Val-Gly-Cys-Leu-) [7-3] | 82% |
| Pyr-Gln-Arg-Leu-Gly-Asn-Gln-Trp-Ala-Val-Gly-His-Cys-Leu-Nle-NH2 ([pGlu]QRLGNQWAVGHCL[Nle]-NH2; numbers in words are those of the source; also: rhenium complex (oxorhenium(V) N3S1 chelate via Cys)) [6-3] | 71% |
